Data on 1 compound can be found in patent US20120010290A1, “Methods of Treating an Overweight or Obese Subject” (priority 2008, published 2012).

The assay deals with diet-induced obese C57BL/6NTac mice. Kind of assay: Weight loss study in diet-induced obese mice. The class given is in vivo. The following applies: oral 1.0 mg/kg in 10% gelucire in deionised water, once a day for 7 days; C57BL/6NTac mice on 60% fat diet; after 7 days. The method, then:
A weight loss study was conducted in obese mice. The mice in this study were not genetically obese, but prior to and during the study, obesity was induced by a high-fat diet. Twelve week-old C57BL/6NTac mice, maintained on a 60% fat diet prior to and during the study, were separated into two groups, with eight animals per group. Average body weight of the mice was approximately 47 g at the start of the study.
One group was orally administered 1.0 mg/kg of compound H in 10% gelucire in deionised water, and one group was administered 10% gelucire in deionised water (vehicle). Compound H is as follows:
Mice received administrations once a day for 7 days. After 7 days, the average weight loss of mice administered compound H was 13.2%.

Consider `CCN(CC)C/C=C\c1ccccc1S(=O)(=O)Nc1ccc2c(c1C(=O)O)CCCC2` [compound H], for which the average weight loss is given as 13.2%.
